Holding throughout (assay type): biochemical
One assay addresses T1, Ube2L3 (Homo sapiens, UniProt P68036).
T1 construct: eGFP-Ube2L3
The assay can be described thus: On-bead UPS-CONA, concentration-dependent inhibition on eGFP-Ube2L3.

Assay [1] addresses T2, Ube1 (Homo sapiens, UniProt P22314).
T2 construct: gene UBA1
T2 sequence (P22314 2-1058): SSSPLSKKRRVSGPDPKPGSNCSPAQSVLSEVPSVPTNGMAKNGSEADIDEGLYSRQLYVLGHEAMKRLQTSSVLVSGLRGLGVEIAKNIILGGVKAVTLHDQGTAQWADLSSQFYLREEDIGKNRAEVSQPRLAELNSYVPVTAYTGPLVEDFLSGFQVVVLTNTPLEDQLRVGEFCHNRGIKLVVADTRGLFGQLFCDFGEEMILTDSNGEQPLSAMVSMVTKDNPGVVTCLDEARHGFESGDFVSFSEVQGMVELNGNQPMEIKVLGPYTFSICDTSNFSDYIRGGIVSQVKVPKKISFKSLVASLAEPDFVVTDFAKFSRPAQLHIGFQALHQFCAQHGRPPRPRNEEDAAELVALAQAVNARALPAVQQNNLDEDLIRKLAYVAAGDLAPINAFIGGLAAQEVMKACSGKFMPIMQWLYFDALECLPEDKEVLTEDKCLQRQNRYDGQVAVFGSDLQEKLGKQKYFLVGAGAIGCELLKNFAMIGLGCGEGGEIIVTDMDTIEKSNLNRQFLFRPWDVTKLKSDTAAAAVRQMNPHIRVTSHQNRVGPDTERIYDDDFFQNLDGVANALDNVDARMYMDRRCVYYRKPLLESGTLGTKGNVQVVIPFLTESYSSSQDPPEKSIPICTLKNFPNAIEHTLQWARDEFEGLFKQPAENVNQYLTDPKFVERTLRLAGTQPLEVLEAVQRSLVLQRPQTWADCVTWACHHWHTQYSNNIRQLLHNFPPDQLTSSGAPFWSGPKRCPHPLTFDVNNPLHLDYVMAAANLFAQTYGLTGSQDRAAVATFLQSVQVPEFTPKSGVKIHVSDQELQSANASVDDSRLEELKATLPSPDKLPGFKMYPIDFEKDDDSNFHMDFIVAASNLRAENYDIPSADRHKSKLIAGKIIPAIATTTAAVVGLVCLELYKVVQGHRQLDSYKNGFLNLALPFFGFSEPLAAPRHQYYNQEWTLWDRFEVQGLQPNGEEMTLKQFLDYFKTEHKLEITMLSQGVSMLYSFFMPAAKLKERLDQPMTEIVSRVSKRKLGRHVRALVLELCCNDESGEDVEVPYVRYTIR
The assay can be described thus: Gel-based Ube1~Ub thioester assay with purified Ube1; also on-bead UPS-CONA with Ube1 alone (IC50 below […]).

The target of assay [2] is T2, Ube1. The assay can be described thus: Gel-based Ube1~Ub thioester assay and on-bead UPS-CONA with Ube1 alone.

The results in this text go back to publication PMC6086040, “Real-time tracking of complex ubiquitination cascades using a fluorescent confocal on-bead assay” (BMC Biology, 2018).

T1 sequence (P68036 whole entry, one chain of several): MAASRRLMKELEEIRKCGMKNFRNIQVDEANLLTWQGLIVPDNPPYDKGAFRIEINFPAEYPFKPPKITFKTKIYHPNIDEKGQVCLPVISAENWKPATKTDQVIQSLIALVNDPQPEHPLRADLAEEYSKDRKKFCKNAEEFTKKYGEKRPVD

Regarding `Cc1ccc(S(=O)(=O)/C=C/C#N)cc1` [BAY 11-7082], the IC50 (commonly the concentration needed to halve the response being measured) against Ube2L3 was 7.5 µM; against Ube1 [1], roughly 4.6 µM.

On Ube1 [2], `CCc1ccc(/C=C/C(=O)Nc2ccc(C(C)=O)cc2)o1` [heclin] showed an IC50 of 16 µM.
